Assay results published in patent US8329645B2, “Polymyxin derivatives and uses thereof” (priority 2008, dated 2012).
Where a SMILES comes first, the peptide text is derived from it. Bridges are numbered along the chain shown (N, C = ends). [ ]: non-standard residue; d: D form. The star is where a group is joined. Decanoyl = CCCCCCCCCC(=O)*; Octanoyl = CCCCCCCC(=O)*; Dab = NCC[C@H](N)C(=O)O; Abu = CC[C@H](N)C(=O)O

Tests used:
E. coli F18 = type: cell-based, Escherichia coli
Description: The MIC values of NAB 739, NAB 740, and NAB7061 were determined by using the agar dilution method according to the CLSI protocol M7-A7. Polymyxin B sulfate (Sigma-Aldrich, St. Louis, Mo., USA) was used as a control. […]; two-fold increments) of the test substances were used. The bacterial test strains originated from ATCC (10 strains), CCUG (11 strains), and NCTC (3 strains). Fourteen (14) strains (the F-strains) were purchased from Mobidiag Ltd., Helsinki, Finland. Besides bacteria, the MIC was also determined for the yeast Candida albicans (ATCC 28366 from ATCC).
(§1) The inocula were prepared by adjusting the bacterial suspensions to a density equivalent to OD546 nm˜0.3 (˜10^8 CFU/ml˜0.5 McFarland) the yeast suspension to a density equivalent to OD546 nm˜0.75 (˜2×10^7 CFU/ml)._The suspensions were diluted to 10^7 CFU/ml. The plates were inoculated by using a Denley Multipoint Inoculator, 1 μl per spot corresponding to approx. 10^4 CFU/spot. Plates were incubated for 16-20 hours at 35° C.

E. coli IH3080 [1] = assay: Growth inhibition around wells on LB agar plates; type: cell-based, Escherichia coli
In short: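 Growth inhibition of encapsulated E. coli IH3080 (K1:O018) was assessed on LB agar plates. A suspension of about 10^8 cells/ml in 0.9% NaCl, made from an overnight LB agar culture, was spread across the plate surface and the excess removed. After drying, 2 mm wells were drilled, with 0.9% NaCl as control. Following 18 h at 37° C., inhibition zone diameters around wells were converted to areas in square mm.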

E. coli F10 = details: F10
Description: (§2) Polymyxin B sulfate (Sigma-Aldrich, St. Louis, Mo., USA) was used as a control. […] The bacterial test strains originated from ATCC (10 strains), CCUG (11 strains), and NCTC (3 strains). Fourteen (14) strains (the F-strains) were purchased from Mobidiag Ltd., Helsinki, Finland.
as §1

E. cloacae CCUG 52947 = details: CCUG 52947
Description: as §2, §1

E. cloacae ATCC 23355 = details: ATCC 23355
Description: as §2, §1

K. oxytoca ATCC 13182 = details: ATCC 13182
Description: as §2, §1

E. coli NCTC 13352 = details: NCTC 13352
Description: as §2, §1

E. coli CCUG 41427 = details: CCUG 41427
Description: as §2, §1

S. marcescens ATCC 8100 = details: ATCC 8100
Description: as §2, §1

E. coli F9 = details: F9
Description: as §2, §1

K. pneumoniae F136 = details: F136
Description: as §2, §1

A. baumannii F263 = details: F263
Description: as §2, §1

P. aeruginosa ATCC 27853 = details: ATCC 27853
Description: as §2, §1

E. coli CCUG 41429 = details: CCUG 41429
Description: as §2, §1

E. coli F19 = details: F19
Description: as §2, §1

E. coli F8 = details: F8
Description: as §2, §1

A. baumannii ATCC 19606 = details: ATCC 19606
Description: as §2, §1

E. cloacae F230 = details: F230
Description: as §2, §1

E. coli IH3080 [2] = details: IH3080
Description: as §2, §1

K. pneumoniae CCUG 45421 = details: CCUG 45421
Description: as §2, §1

S. aureus ATCC 25923 = details: ATCC 25923
Description: as §2, §1

E. coli CCUG 41425 = details: CCUG 41425
Description: as §2, §1

P. aeruginosa F58 = details: F58
Description: as §2, §1

E. cloacae F231 = details: F231
Description: as §2, §1

C. albicans ATCC 28366 = details: ATCC 28366
Description: as §2, §1

E. coli CCUG 41424 = details: CCUG 41424
Description: as §2, §1

E. coli CCUG 41422 = tested on: E. coli CCUG 41422
Description: as §2, §1

P. aeruginosa CCUG 51971 = tested on: P. aeruginosa CCUG 51971
Description: as §2, §1

K. pneumoniae F145 = details: F145
Description: as §2, §1

CCCCCCCC(=O)N[C@H](C(=O)N[C@@H](CC)C(=O)N[C@H]1CCNC(=O)[C@H]([C@@H](C)O)NC(=O)[C@H](CCN)NC(=O)[C@H](CCN)NC(=O)[C@H](CC(C)C)NC(=O)[C@@H](Cc2ccccc2)NC(=O)[C@H](CCN)NC1=O)[C@@H](C)O [NAB 7061, OA-Thr-Abu-cy[Dab-Dab-DPhe-Leu-Dab-Dab-Thr-]] (Octanoyl-T[Abu][Dab][Dab][dF]L[Dab][Dab]T; lactam 3-C)
>32 mg/L: MIC (E. coli F18) | MIC (E. coli F10) | MIC (E. cloacae CCUG 52947) | MIC (E. coli CCUG 41427) | MIC (S. marcescens ATCC 8100) | MIC (E. coli F9) | MIC (K. pneumoniae F136) | MIC (A. baumannii F263) | MIC (P. aeruginosa ATCC 27853) | MIC (E. coli F8) | MIC (A. baumannii ATCC 19606) | MIC (E. cloacae F230) | MIC (E. coli IH3080 [2]) | MIC (K. pneumoniae CCUG 45421) | MIC (S. aureus ATCC 25923) | MIC (E. coli CCUG 41425) | MIC (P. aeruginosa F58) | MIC (C. albicans ATCC 28366) | MIC (E. coli CCUG 41422) | MIC (P. aeruginosa CCUG 51971) | MIC (K. pneumoniae F145)
32 mg/L: MIC (E. cloacae ATCC 23355) | MIC (K. oxytoca ATCC 13182) | MIC (E. coli NCTC 13352) | MIC (E. coli F19) | MIC (E. cloacae F231) | MIC (E. coli CCUG 41424)
0 square millimeters: growth inhibition around a well (E. coli IH3080 [1]; 4 μg of compound per well)
16 mg/L: MIC (E. coli CCUG 41429)

CCCCCCCCCC(=O)N[C@H](C(=O)N[C@H](CO)C(=O)N[C@H]1CCNC(=O)[C@H]([C@@H](C)O)NC(=O)[C@H](CCN)NC(=O)[C@H](CCN)NC(=O)[C@H](CC(C)C)NC(=O)[C@@H](Cc2ccccc2)NC(=O)[C@H](CCN)NC1=O)[C@@H](C)O [NAB 740, DA-Thr-DSer-cy[Dab-Dab-DPhe-Leu-Dab-Dab-Thr-]] (Decanoyl-T[dS][Dab][Dab][dF]L[Dab][Dab]T; lactam 3-C)
4 mg/L: MIC (P. aeruginosa ATCC 27853) | MIC (A. baumannii ATCC 19606) | MIC (K. pneumoniae CCUG 45421) | MIC (P. aeruginosa F58)
1 mg/L: MIC (E. coli NCTC 13352) | MIC (E. coli CCUG 41427) | MIC (E. coli CCUG 41429) | MIC (E. coli F19)
>32 mg/L: MIC (S. marcescens ATCC 8100) | MIC (S. aureus ATCC 25923) | MIC (C. albicans ATCC 28366)
8 mg/L: MIC (P. aeruginosa CCUG 51971)
2 mg/L: MIC (E. coli F18) | MIC (E. coli F10) | MIC (E. cloacae CCUG 52947) | MIC (E. cloacae ATCC 23355) | MIC (K. oxytoca ATCC 13182) | MIC (E. coli F9) | MIC (K. pneumoniae F136) | MIC (A. baumannii F263) | MIC (E. coli F8) | MIC (E. cloacae F230) | MIC (E. coli IH3080 [2]) | MIC (E. coli CCUG 41425) | MIC (E. cloacae F231) | MIC (E. coli CCUG 41424) | MIC (E. coli CCUG 41422) | MIC (K. pneumoniae F145)
133 square millimeters: growth inhibition around a well (E. coli IH3080 [1]; 10 μg of compound per well)
